Experimental data: publication PMC10714390, “Quinoline Compounds Targeting the c-Ring of ATP Synthase Inhibit Drug-Resistant Pseudomonas aeruginosa” (ACS Infectious Diseases, 2023)

Tests used:
[1] = system: drug-resistant P. aeruginosa BAA 2108; experiment: Antimicrobial susceptibility (broth microdilution), BAA 2108; assay type: cell-based, Pseudomonas aeruginosa; conditions: for MIC: Pseudomonas aeruginosa, BAA2108, read-out: antibacterial activity (MIC) BAA 2108; for antibacterial activity in words, BAA 2108: summary of Table 1
Method: (§1) The following are general steps, unless otherwise noted. All steps were completed using aseptic techniques. All media and glassware were sterilized via an autoclave at 121 °C for 60 min. All agitation occurred at 160 rpm in a temperature-controlled console shaker (Excella E25) at 37 °C. Full-strength tryptic soy broth (TSB) was made by dissolving 30 g of BD Bacto TSB powder in 1 L of deionized water. Purchased and acquired bacterial strains used were E. coli (ATCC 25922), P. aeruginosa (ATCC 9027), drug-resistant P. aeruginosa from ATCC Panel MP-23 (BAA 2108, BAA 2109, BAA 2110), and P. aeruginosa efflux knockout GKCW120 (PΔ6)[6] provided by Zgurskaya and co-workers at the University of Oklahoma.
(§2) Susceptibility testing was performed in biological triplicate using the broth microdilution method as outlined by the Clinical and Laboratory Standards Institute. […] Briefly, to each well, 1 μL of compound in DMSO, 89 μL of TSB, and 10 μL of bacterial inoculum, grown from a single colony in 10 mL of TSB for 4–6 h, were added. After incubation for 12–15 h at 37 °C, absorbance at 590 nm was read on a Biotek Synergy HTX Multimode plate reader. Data were processed by background subtracting the media absorbance and then normalizing the data to full bacterial growth with the vehicle only. MIC is defined as the lowest concentration of antibiotic or antibiotic/adjuvant combination that achieves ≥85% growth inhibition, which corresponds to no visible growth.

[2] = system: drug-resistant P. aeruginosa BAA 2109; experiment: Antimicrobial susceptibility (broth microdilution), BAA 2109; assay type: cell-based, Pseudomonas aeruginosa; conditions: for MIC: Pseudomonas aeruginosa, BAA2109, read-out: antibacterial activity (MIC) BAA 2109; for antibacterial activity in words, BAA 2109: summary of Table 1
Method: as §1, §2

[3] = target: T1, PA ATP synthase cIle65Phe mutant (Pseudomonas aeruginosa, UniProt Q9HT15, I65F); experiment: NADH-driven ATP synthesis inhibition, DK8/pASH20 cI65F membrane vesicles; assay type: biochemical; conditions: for Hill coefficient of dose response fit, DK8/pASH20 cI65F vesicles: inhibition of ATP synthesis activity
T1 construct: expressed in transfected cells; host or cells: E. coli K-12 DK8 transformed with pASH20 carrying mutated atpE
Method: P. aeruginosa (ATCC 9027) was streaked onto a 10% TSB agar plate and incubated at room temperature for 72 h. A single colony was resuspended in 100 μL of H2O, and 5 μL was used as the DNA template for PCR with Q5 polymerase (NEB) and […] each of forward and reverse primers. Primers were complementary to regions flanking the atp operon and included sequences for HindIII and NdeI restriction sites (see the SI for primer sequences). The resulting 6.9 kbp DNA fragment was digested with HindIII and NdeI and ligated into digested vector pBR322 (New England Biolabs). The resultant pASH20(-i) plasmid contains a partial atpI gene. To complete the atpI gene, the HindII-XhoI fragment of pASH20(-i) was replaced with a synthetic fragment with a complete atpI (Twist Bioscience) to yield pASH20. The sequence of the entire operon was verified by Sanger DNA sequencing through the ligation sites. Subunit c mutations were introduced by exchanging the XhoI-BamHI fragment containing atpE with a synthetic fragment containing mutated atpE (Twist Bioscience).
Vesicles were prepared from P. aeruginosa and transformed E. coli cells as previously described.[22] Briefly, cells were grown in LB liquid medium at 37 °C with shaking and harvested by centrifugation after 7 h of growth. Cultures of transformant E. coli included 100 μg/mL ampicillin. Cells were disrupted in TMG buffer (50 mM Tris-HCl, MgCl2, 10% (v/v) glycerol, pH 7.5) using an Avestin B15 homogenizer at 19,000 psi. After unbroken cells and debris were cleared by centrifugation at 9000g, inverted vesicles were collected by centrifugation at 193,000g, resuspended in TMG buffer, and stored at −80 °C. Protein concentrations were determined using a modified Lowry assay.[25]
(§3) Continuous ATP synthesis activity of inverted membrane vesicles was measured using a luciferin/luciferase luminescence assay as previously described.[22] Inhibition of ATP synthesis activity by test compounds was determined using an end point assay essentially as previously described.[18],[26] In this assay, the synthesis reaction was initiated by 2.5 mM NADH, proceeded for 10 min, and was stopped with 1% trichloroacetic acid, 2 mM CCCP, and 10 mM EDTA. Samples from each reaction were diluted 500-fold prior to the addition of luciferase since quinoline compounds are known to inhibit luciferase.[27] This dilution was sufficient to minimize inhibition of luciferase (Figure S4). Each replicate set included a positive control containing DMSO with no compound and a negative control containing carbonyl cyanide m-chlorophenyl hydrazone. Luminescence values were corrected for the background by subtracting the negative control and then normalized to the positive control within the same replicate. Dose–response curves were fit using eq 1, where activity is the relative ATP synthesis activity, [I] is the concentration of inhibitor in μg/mL, and n is the Hill coefficient. [drawing 1] 1

E. coli (ATCC 25922) = experiment: Antimicrobial susceptibility (broth microdilution), EC 25922; assay type: cell-based, Escherichia coli; conditions: for MIC: Escherichia coli, ATCC25922, read-out: antibacterial activity (MIC) EC 25922; for antibacterial activity in words, EC 25922: summary of Table 1
Method: as §1, §2
Initial antibacterial activity screen of compounds 4, 5, and S1-S6
Compounds 4, 5, and S1-S6 were screened for initial antibiotic activity against a susceptible laboratory strain of EC (designated EC 25922), and non-virulent, biofilm forming strain of PA (designated PA 9027), and PD6 (efflux knockout strain6) at 128 µg/mL in DMSO. Sterilization and Antimicrobial Susceptibility Assay procedures utilized were the same as described in the methods.
Table S1. Antibacterial activity screening results for compounds 4, 5, and S1-S6 at 128 µg/mL
Table S1. Antibacterial activity screening results for compounds 4, 5, and S1-S6 at 128 µg/mL.

luciferase = luciferase (Photinus pyralis, UniProt P08659); experiment: Inhibition of luciferase by quinoline compounds; assay type: biochemical; conditions: after 500-fold dilution; Figure S4
luciferase, sequence (P08659 whole entry): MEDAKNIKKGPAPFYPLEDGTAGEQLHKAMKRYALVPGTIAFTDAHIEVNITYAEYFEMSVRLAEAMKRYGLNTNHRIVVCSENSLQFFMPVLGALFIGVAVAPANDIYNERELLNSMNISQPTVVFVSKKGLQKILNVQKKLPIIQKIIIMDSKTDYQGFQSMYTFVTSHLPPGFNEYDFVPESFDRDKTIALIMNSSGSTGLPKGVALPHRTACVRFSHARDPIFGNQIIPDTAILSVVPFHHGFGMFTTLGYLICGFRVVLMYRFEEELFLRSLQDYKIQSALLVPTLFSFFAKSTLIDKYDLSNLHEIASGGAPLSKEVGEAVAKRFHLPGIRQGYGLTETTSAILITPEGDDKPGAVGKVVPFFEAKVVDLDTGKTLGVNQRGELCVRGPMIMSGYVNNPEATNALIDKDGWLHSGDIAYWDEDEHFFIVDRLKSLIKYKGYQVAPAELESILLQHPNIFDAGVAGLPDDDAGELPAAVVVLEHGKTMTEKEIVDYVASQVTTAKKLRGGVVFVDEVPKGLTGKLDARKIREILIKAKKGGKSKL
Method: as §3
Table S2: All IC50 values and Hill coefficients for dose response fits of inhibition of ATP synthesis activity. […]
luciferase) at the indicated concentrations, and luminescence was measured after the addition of ATP to […]

CSc1nc2ccccc2cc1CNCc1ccc(CN(C)C)cc1 [Compound 4, N,N-Dimethyl-1-(4-((((2-(methylthio)quinolin-3-yl)methyl)amino)methyl)phenyl)methanamine]
MIC [1]: 128 to 256 µg/mL
antibacterial activity in words, BAA 2108 [1]: able to inhibit
MIC [2]: 256 µg/mL
antibacterial activity in words, BAA 2109 [2]: able to inhibit
IC50 [3]: 12.8 µM
fold reduction in IC50, cIle65Phe mutant relative to wild type ([3]; ATP synthesis inhibition, DK8/pASH20 vesicles): greater than 6 fold
Hill coefficient of dose response fit, DK8/pASH20 cI65F vesicles [3]: 1.4
MIC (E. coli (ATCC 25922)): 256 µg/mL
antibacterial activity in words, EC 25922 (E. coli (ATCC 25922)): weakly inhibit
inhibition of luciferase, in words (luciferase): did not significantly inhibit

CN(C)Cc1ccc(CNCc2cc3ccccc3nc2SCc2ccccc2)cc1 [Compound 5, 1-(4-((((2-(Benzylthio)quinolin-3-yl)methyl)amino)methyl)phenyl)-N,N-dimethylmethanamine]
MIC [1]: 64 µg/mL
antibacterial activity in words, BAA 2108 [1]: more potent
MIC [2]: > 128 µg/mL
antibacterial activity in words, BAA 2109 [2]: inactive
IC50 [3]: 8.18 µM
Hill coefficient of dose response fit, DK8/pASH20 cI65F vesicles [3]: 1.8
MIC (E. coli (ATCC 25922)): 64 µg/mL
Antibacterial activity screening result, EC 25922 (E. coli (ATCC 25922); at 128 µg/mL in DMSO): I
antibacterial activity in words, EC 25922 (E. coli (ATCC 25922)): more potent
inhibition of luciferase, in words (luciferase): did not significantly inhibit
